What was measured:
[1] = test system: dermatitis induced by picryl chloride (type IV allergic inflammation); experiment: Inhibitory effect on dermatitis induced by picryl chloride, oral administration; format: in vivo, ICR strain male mice; details: oral 10 mg/kg in 0.5% CMC-Na one hour before the causing; relative to comparative compound 1 oral 100 mg/kg
Experimental: The effect on the animal model in Evaluation Example 1 was verified by oral administration. ICR strain male mice were sensitized in the same manner as in Evaluation Example 1, and on the seventh days after the sensitization, 0.02 ml of a 1% (w/v) picryl chloride/acetone solution was applied on the ear of each mouse to cause an allergic reaction. Each test compound was suspended in a 0.5% CMC-Na solution and orally administered in a dose of 10 mg/kg one hour before the causing of the allergic reaction. As a comparative example, the above-mentioned comparative compound 1 disclosed in Japanese Patent No. 3093170 was orally administered in a dose of 100 mg/kg to make a comparison.

[2] = test system: dermatitis induced by picryl chloride (type IV allergic inflammation); experiment: Inhibitory effect on dermatitis induced by picryl chloride, test compound applied on the ear; format: in vivo, ICR strain male mice; details: 0.04 ml of 0.25% (w/v) test compound/acetone on the ear; ear thickness 24 hours after the causing; relative to 2.5% (w/v) comparative compound 1 (10 times the amount)
Experimental: In order to verify the inflammation-inhibiting effect of the uracil derivative of the present invention, its effect on dermatitis induced by picryl chloride, a model of typical type IV allergic inflammation was evaluated by adopting the method of Asherson et al. (Immunology, 15, 405 (1968)). On the abdominal skin of each of ICR strain male mice was applied 0.1 ml of a 7% (w/v) picryl chloride/acetone solution to induce sensitization. On the seventh days after the sensitization, 0.02 ml of a 1% (w/v) picryl chloride/acetone solution was applied on the ear of each mouse to cause an allergic reaction. […] Twenty-four hours after the causing, the thickness of the ear was measured and the dermatitis-inhibiting effect of the test compound was evaluated by employing the difference between the thickness of the ear 24 hours after the causing and that before the causing as an indication. […]
From the difference of the ear thickness before and after the causing of the allergic reaction in the case of each group, the relative degree of efficacy of the test compound in the inhibition of ear enlargement was calculated according to the following equation by comparison with a group treated with the comparative compound in an amount of 10 times that of the test compound: [formula]

[3] = test system: itch-related behavior induced by substance P; experiment: Inhibitory effect on the itch-related behavior of mice induced by substance P; format: in vivo, BALB/c strain male mice; details: frequency counted for 60 minutes, vs 0.5% CMC-Na group
Experimental: It has been reported that in the lesion part of a patient with atopic dermatitis, there are observed an increase in nerve fiber containing substance P (SP), a nerve peptide (Tobin D et al., J Allergy Clin immunol, 90, 613-22(1992)) and an increase in reactivity with SP (Gianetti A et al. Br J Dermatol, 121, 681-8(1989)). On the other hand, it has been reported that when SP is administered to the cervicodorsal part of a mouse, itch-related behavior is induced (Kuraishi Y et al. Eur J Pharmacol, 275, 229-33(1995)) and is suppressed by a certain antiallergic agent (Inagaki N et al. Eur J Pharmacol, 400, 73-9(2000)). Therefore, in order to verify the itch-inhibiting effect of the uracil derivatives of the present invention, the itch-inhibiting effect was evaluated by employing the effect of the uracil derivatives on itch-related behavior induced by SP, as an indication. Each of BALB/c strain male mice was previously transferred to a cage for observation and allowed to acclimate to an observation environment, and then SP was subcutaneously administered (200 μg/mouse) to the cervicodorsal part of the mouse. After the administration, the mouse was returned to the cage for observation and the frequency of its itch-related behavior was measured for 60 minutes after the return. Each test drug was suspended in a 0.5% CMC-Na solution and orally administered in a dose of 10 mg/kg 30 minutes before the administration of SP. For evaluating the itch-inhibiting effect, the inhibition rate of the test drug was calculated as an indication as follows by comparison with a group treated with a 0.5% CMC-Na solution. As a comparative example, an antiallergic agent Oxatomide, which is considered as an agent having itch-inhibiting effect, was administered in a dose of 3 times that of the test drug (30 mg/kg). [formula]

[4] = oral 10 mg/kg 30 minutes before SP (200 μg/mouse s.c.)

For `CCCCn1c(=O)c(NC(=O)c2c(C)c(O)c(C)c3c2OC(C)(C)C3)c(N)n(-c2cccc3ccccc23)c1=O` [Example 14, 6-amino-3-butyl-5-(6-hydroxy-2,2,5,7-tetramethyl-3-oxaindan-4-carboxamide)-1-(1-naphthyl)uracil], the “Degree of efficacy (relative degree of efficacy in the inhibition of ear enlargement)” value [1] was 1.0.

`CCn1c(=O)c(NC(=O)c2c(C)c(O)c(C)c3c2OC(C)(C)C3)c(N)n(-c2cccc3c2CCC3)c1=O` [Example 20, 6-amino-3-ethyl-5-(6-hydroxy-2,2,5,7-tetramethyl-3-oxaindan-4-carboxamide)-1-(4-indanyl)uracil] was tested, and the “Degree of efficacy (relative degree of efficacy in the inhibition of ear enlargement)” value [1] was 1.2.

With `Cc1cccc(-n2c(N)c(NC(=O)COc3cc(C)c(N)c(C)c3C)c(=O)n(C)c2=O)c1C` [Example 29, 6-amino-5-[(4-amino-2,3,5-trimethyl)phenoxy]acetamide-3-methyl-1-(2,3-dimethylphenyl)uracil] the “Degree of efficacy (relative degree of efficacy in the inhibition of ear enlargement)” value [1] was 1.4.

In the case of `Cc1cc(OCC(=O)Nc2c(N)n(-c3cccc4ccccc34)c(=O)n(C)c2=O)c(C)c(C)c1N` [Example 5, 6-amino-5-[(4-amino-2,3,5-trimethyl)phenoxy]acetamide-3-methyl-1-(1-naphthyl)uracil], the “Degree of efficacy (relative degree of efficacy in the inhibition of ear enlargement)” value [2] was 1.1 and the “Inhibition rate (%) of itch-related behavior” value (from here on “Inhibition rate (%)”) [3, 4] was 53%.

In the case of `O=c1[nH]c2ccccc2n1CCCN1CCN(C(c2ccccc2)c2ccccc2)CC1` [Oxatomide, reference compound], the “Inhibition rate (%)” value ([3]; oral 30 mg/kg 30 minutes before SP (200 μg/mouse s.c.)) was 39%.

For `Cc1c(O)c(C)c(C(=O)Nc2c(N)n(-c3cccc4ccccc34)c(=O)n(C)c2=O)c2c1CCC(C)(C)O2` [Example 2, 6-amino-5-(6-hydroxy-2,2,5,7-tetramethyl-chroman-8-carboxamide)-3-methyl-1-(1-naphthyl)uracil], the “Inhibition rate (%)” value [3, 4] was 71%.

With `Cc1c(O)c(C)c(C(=O)Nc2c(N)n(-c3cccc4c3CCCC4)c(=O)n(C)c2=O)c2c1CC(C)(C)O2` [Example 22, 6-amino-3-methyl-5-(6-hydroxy-2,2,5,7-tetramethyl-3-oxaindan-4-carboxamide)-1-(5,6,7,8-tetrahydro-1-naphthyl)uracil] the “Degree of efficacy (relative degree of efficacy in the inhibition of ear enlargement)” value [1] was 1.3.

For `CCn1c(=O)c(NC(=O)c2c(C)c(O)c(C)c3c2OC(C)(C)CC3)c(N)n(-c2cccnc2OC)c1=O` [Example 10, 6-amino-3-ethyl-5-(6-hydroxy-2,2,5,7-tetramethylchroman-8-carboxamide)-1-(2-methoxypyridin-3-yl)uracil], the “Degree of efficacy (relative degree of efficacy in the inhibition of ear enlargement)” value [1] was 1.6.

In the case of `Cc1cc(OCC(=O)Nc2c(N)n(-c3cccc4ccccc34)c(=O)n(C)c2=O)c(C)c(C)c1O` [Example 4, 6-amino-5-[(4-hydroxy-2,3,5-trimethyl)phenoxy]acetamide-3-methyl-1-(1-naphthyl)uracil], the “Degree of efficacy (relative degree of efficacy in the inhibition of ear enlargement)” value [2] was 0.9.

For `CNc1c(NC(=O)COc2cc(C)c(N)c(C)c2C)c(=O)n(C)c(=O)n1-c1cccc(C)c1C` [Example 30, 6-methylamino-5-[(4-amino-2,3,5-trimethyl)phenoxy]acetamide-3-methyl-1-(2,3-dimethylphenyl)uracil], the “Degree of efficacy (relative degree of efficacy in the inhibition of ear enlargement)” value [1] was 1.6.

From patent US20060094737A1, “Novel uracil derivatives and medicinal use thereof” (Sumitomo Pharmaceuticals CO. Ltd., priority 2002, published 2006)
